Like-named read-outs stand apart in the source and are kept apart here.

Results on six molecules are retold here after US20110117210A1, “Therapeutic treatment of human cancers using simple salts of zinc” (priority 2009, published 2011).

Data set [1] concerns human thyroid cancer cells. As to conditions: in vitro; cited from earlier work.
Data set [2] deals with human colorectal cancer cells. Conditions: in-vitro; cited from earlier work.
Data set [3] relates to human prostate cancer cells. Conditions: cited from earlier work.
A further data set concerns metastatic melanoma. Kind of data set: Clinical Case History 2: oral zinc salt treatment of a patient with metastatic melanoma. The format is in vivo, human. As to conditions: oral 600 mg per day; for edema of right leg: July 2009 follow-up; for metastatic nodes in abdominal cavity, computer tomography and ultrasound: Oct. 20, 2009, then 900 mg per 24 hours July-October 2009. How it is done:
In November 2008, the skin lesion became progressively larger and ulcerated. Then in December 2008, a skin tumor resection and dissection of an enlarged right inguinal lymph nodes were performed, yielding melanoma and inguinal lymph nodes with metastatic disease.
In January 2009, a course of conventional chemotherapy was prescribed and performed for the patient.
The patient was subsequently discharged from the hospital, with a poor prognosis (up to 2 months survival time).
The patient then began orally taking Zinc Picolinate at a 600 mg per day dosage. They orally ingested Zinc Picolinate daily, for 5 months time (from February, 2009 to May, 2009); and then Zinc Sulfate daily for 1 month (June, 2009) at a dose of 600 mg per day (300 mg twice a day with a meal) and for 4 months (from July, 2009 to October, 2009) at a dose of 900 mg per 24 hours (300 mg every 8 hours with a meal).

Data set [4] can be described thus: Monitoring of treated cancer patients for manifestations of zinc toxicity. Format: in vivo, human. As to conditions: for toxic effects of zinc treatment: oral 600 mg per day 5 months, 900 mg per day 4 months. How it is done:
Step 4: Periodically monitoring the status of the afflicted human subject during the therapeutic treatment regimen to confirm that no manifestations of zinc toxicity appear.
The levels of zinc can be monitored in plasma by conventional blood test. A medically normal concentration of zinc in human plasma is about 100 μg/100 mL.
The oncologist or physician should therefore periodically examine their patient in two ways during treatment:
First, the patient should be physically examined on a regular time basis for symptoms of zinc toxicity. As noted above, the risk and dangers of zinc toxicity in humans can occur in both acute and chronic forms; and symptoms of zinc toxicity can appear as nausea, vomiting, loss of appetite, abdominal cramps, diarrhea, and headaches.
Second, samples of the patient's blood should be taken routinely and regularly tested for zinc content using the blood chemistry assays and instrumentation conventionally known and commercially sold for this purpose. Although the values for the individual patient will likely vary considerably, the test results should approximate the medically normal concentration of zinc in human plasma of about 100 μg/100 mL.
In addition, although it is considered very unlikely that any manifestations of zinc toxicity will appear in an individual patient over the duration of therapeutic treatment with the present invention, it is deemed to be proper and necessary to verify that no serious manifestations of zinc toxicity appear regardless of how long the treatment regimen is continued. This is considered to be especially important in view of the likelihood of months and years of therapeutic treatment for some patients. Accordingly, the testing for undesirable zinc effects and toxicity should continue concurrently with and over the full duration of the therapeutic treatment for the patient.

The conditions of data set [5]: 80 mg per day of zinc for 6.3 years on average; cited from earlier work.
For data set [6] the following is noted: cited from earlier work.
For another data set, the system named is HIPK2i cells. Conditions: zinc added to culture medium concomitant with adriamycine (ADR); cited from earlier work.
Data set [7] addresses GSK-3 (Glycogen Synthase Kinase-3) (Homo sapiens, UniProt P49841). As to conditions: cited from earlier work.
The conditions of data set [8]: human, cited from earlier work.
The conditions of data set [9]: after ingesting 4 grams (570 milligrams of elemental zinc); cited from earlier work.
The test system of data set [10] is lung cancer (squamous cell carcinoma). The experiment in a line: Clinical Case History 3: oral zinc salt treatment of a lung cancer patient after radiotherapy. Format: in vivo, human. As to the method:
A person afflicted with lung cancer (tumor stenosis of right upper lobe bronchus, squamous cell carcinoma) had been conventionally treated with radiotherapy.
The patient then began to take Zinc Picolinate daily, for 1 month, at a dose of 600 mg per day (orally ingested as 300 mg of Zinc Picolinate taken twice a day with meals). […] The patient continued to take Zinc Picolinate orally from August, 2009 till October, 2009—but at a dose of 900 mg per day (orally ingested as 300 mg of Zinc Picolinate every 8 hours with meals).

Data set [11] concerns squamous cell carcinoma of the lung. The experiment in a line: Clinical Case History 1: oral zinc salt treatment of a lung cancer patient. The format is in vivo, human. How it is done: A person was admitted to hospital with a cough, life threatening hemoptysis on Jan. 30, 2009. […] Because the patient denied either operation or chemotherapy, their survival prognosis was poor, up to 2 months survival time.
The patient then began taking Zinc Picolinate, orally, at a dose concentration of 200 mg a day. The patient orally ingested Zinc Picolinate daily, for 5 months (from February, 2009 to July, 2009) at a concentration of 200 mg per day, as a dose of 100 mg ingested twice a day with a meal. To date, the patient has not taken any other chemotherapeutic anticancer drug/agent, nor has undergone any other form of conventional cancer treatment.
The patient has been orally ingesting 200 mg of Zinc Picolinate per day for nearly six calendar months time. […] The patient has been orally taking 600 mg of Zinc Picolinate daily from August, 2009 to October, 2009.

The conditions of data set [12]: water and aqueous based fluids, cited from earlier work.
Where [13] appears, read: Case History 2, metastatic melanoma.
Where [14] appears, read: Case History 2, metastatic melanoma, oral 600-900 mg per day.

GSK-3 (Glycogen Synthase Kinase-3), sequence (P49841 whole entry): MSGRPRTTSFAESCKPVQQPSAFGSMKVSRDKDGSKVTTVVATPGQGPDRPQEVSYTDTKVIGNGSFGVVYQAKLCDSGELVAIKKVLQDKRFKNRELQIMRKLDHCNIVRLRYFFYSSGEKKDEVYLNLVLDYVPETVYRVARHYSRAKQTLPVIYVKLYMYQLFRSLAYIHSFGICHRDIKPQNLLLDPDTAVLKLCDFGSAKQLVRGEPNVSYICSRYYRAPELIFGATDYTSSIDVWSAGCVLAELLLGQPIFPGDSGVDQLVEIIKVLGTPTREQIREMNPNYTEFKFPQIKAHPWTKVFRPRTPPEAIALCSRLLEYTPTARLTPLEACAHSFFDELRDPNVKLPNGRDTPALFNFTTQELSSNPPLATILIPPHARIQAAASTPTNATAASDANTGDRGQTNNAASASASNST

As for `[Cl-].[Cl-].[Zn+2]` [Zinc Chloride], the apoptosis entry in data set [1] was “induces apoptosis”. In addition, the proliferation entry in data set [1] and in [2] was “inhibits proliferation” throughout.

As to `O=S(=O)([O-])[O-].[Zn+2]` [Zinc Sulfate], in data set [3], the apoptosis result is listed as “induce apoptosis” and the proliferation entry was “inhibit proliferation”. For the same molecule, in the data set with metastatic melanoma, the “edema of right leg” value was “significantly decreased”; the “metastatic nodes in abdominal cavity, computer tomography and ultrasound” value is “complete regression”. For the same molecule, the “toxic effects of zinc treatment” value in data set [4] (setting [13]) was “no toxic effects”. For the same molecule, the weight loss entry in data set [4] (setting [14]) was “no weight loss”.

Turning to `[O]=[Zn]` [zinc oxide], the “hospitalizations for genitourinary causes” value in [5] is listed as “significant increase”.

The IC50 is the concentration at which inhibition is half-maximal. On to `[Zn]` [zinc], for which, in [6], the “level of zinc in diet known to cause chronic zinc toxicosis” value is on record as > 2,000 ppm. The wtp53 transcription activity result in the data set on HIPK2i cells is “restored wtp53 transcription activity”. Besides, the IC50 in [7] is 15 µM. Also, in data set [8] (up to 10 weeks), the “intake with reported reductions in a copper-containing enzyme (marker of copper status)” value is “approximately 60 mg/day”. The “intake associated with chronic effects: low copper status, altered iron function, reduced immune function, reduced high-density lipoproteins” value in [8] is listed as 150-450 mg of zinc per day.

As for Zinc Gluconate, the “time to severe nausea and vomiting” value in data set [9] was at most 30 min.

On to Zinc Picolinate, for which the “overall physical condition (cough, shortness of breath)” value in data set [10] (600 mg per day 1 month, then 900 mg per day 3 months) is reported as “significant improvement”. In addition, the “tumor size, bronchoscopy” value in [10] (Oct. 21, 2009, 600 mg per day 1 month, then 900 mg per day August-October 2009) is recorded as “significant decrease”. In addition, in [10] (Oct. 21, 2009, 90% of bronchial lumen obstructed Jun. 14, 2009, 600 then 900 mg per day), the “right upper lobe bronchus previously obstructed by tumor, bronchoscopy” value is “complete opening”. In addition, in [10] (after one month oral 600 mg per day (300 mg twice a day)), the “decrease in the size of the lung tumor, X-ray examination” value was determined as 2 fold. The “signs of cancer progression” value in [11] (November 2009, nine months of treatment: 200 mg per day, then 600 mg daily August-October 2009) is reported as “no signs of cancer progression”. The “clinical outcome of treatment (tumor growth, disease status)” value in data set [11] (oral 200 mg per day (100 mg twice a day), 5 months, no other cancer treatment) was “suppression of tumor growth and stabilization of the disease”. In data set [11] (oral 200 mg per day about 5 months, Jul. 1, 2009, effusion present Jan. 14, 2009), the “right pleural effusion, computer tomography” value is listed as “no right pleural infusion”. The “changes in the size of enlarged subcarinal lymph nodes, computer tomography” value in data set [11] (oral 200 mg per day about 5 months, Jul. 1, 2009 vs Jan. 14, 2009) is recorded as “no meaningful changes”. The “changes in the size of primary lung tumor, computer tomography” value in data set [11] (person, oral 200 mg per day (100 mg twice a day) about 5 months, Jul. 1, 2009 vs Jan. 14, 2009) is “no substantive changes”. Also, the “Water Solubility” value is “slightly soluble” in data set [12] and “only slightly soluble” in [12] (listed as zinc picolinate). The “edema of right leg” value in the data set on metastatic melanoma was “significantly decreased”. The “metastatic nodes in abdominal cavity, computer tomography and ultrasound” value with metastatic melanoma is recorded as “complete regression”. For the same molecule, the weight loss entry in data set [4] (Case History 1, lung cancer, nine months oral treatment, 200 then 600 mg per day) is reported as “no weight loss”; in data set [4] (setting [14]) it was “no weight loss”; in data set [4] (Case History 3, lung cancer, oral 600-900 mg per day) it was “no weight loss”. Further, the “toxic effects of treatment” value in [4] (Case History 1, lung cancer, oral 200 mg per day, later 600 mg per day) was “no toxic effects”. The “toxic effects of zinc treatment” value in data set [4] (setting [13]) was “no toxic effects”. Also, the zinc toxic effects result in data set [4] (Case History 3, lung cancer, oral 600 mg per day 1 month, 900 mg per day 3 months) is on record as “no zinc toxic effects”. Also, the zinc toxicity entry in data set [4] (three cancer patients (Case Histories 1-3), 200 mg to 900 mg per day, daily for 4-9 months) is given as “no zinc toxicity”.
